Results taken from ChEMBL document CHEMBL3046553, “Bioanalytical method development and validation for simultaneous estimation of (R)- and (S)-isomers of S002-333: a potent novel anti-thrombotic agent using LCMS/MS” (Med Chem Res, 2011).

Legend:
[1] = Clearance in New Zealand Oryctolagus cuniculus (rabbit) at 2 mg/kg, iv; assay type: ADME, organism-based; design: dose 2 mg/kg, route intravenous; settings: in vivo
Plasma = experiment: Drug recovery in New Zealand Oryctolagus cuniculus (rabbit) plasma at 1.56 to 400 ng/ml; assay type: ADME, cell-free
[2] = Initial plasma concentration in New Zealand Oryctolagus cuniculus (rabbit) at 2 mg/kg, iv; assay type: ADME, organism-based; design: dose 2 mg/kg, route intravenous
[3] = Half life in New Zealand Oryctolagus cuniculus (rabbit) at 2 mg/kg, iv; assay type: ADME, organism-based; design: dose 2 mg/kg, route intravenous; settings: in vivo
[4] = AUC (0 to infinity) in New Zealand Oryctolagus cuniculus (rabbit) at 2 mg/kg, iv; assay type: ADME, organism-based; design: time infinity, dose 2 mg/kg, route intravenous; settings: plasma
[5] = Volume of distribution in New Zealand Oryctolagus cuniculus (rabbit) at 2 mg/kg, iv; assay type: ADME, organism-based; design: dose 2 mg/kg, route intravenous; settings: in vivo

clearance [1] [mL/min/kg]	Drug recovery (Plasma) [%]	C0 [2] [ng/mL]	half-life [3] [h]	AUC(0-inf) [4] [ng·h/mL]	Vd [5] [L/kg]	Compound
64.7	53.21	288	3.84	568	22	COc1ccc(S(=O)(=O)N2Cc3[nH]c4ccccc4c3C[C@@H]2C(N)=O)cc1
84.3	40.88	276	4.01	436	29.8	COc1ccc(S(=O)(=O)N2Cc3[nH]c4ccccc4c3C[C@H]2C(N)=O)cc1 [S007-1558 (S)]
